Converted amounts (≈) assume the structure as drawn. Read-outs that look alike come from different tables or passages of the source.
Key:
[1] = system: Aspergillus flavus CCM 8363; experiment: Antifungal microdilution broth method, AFla; type: cell-based; conditions: CCM8363, read after 48 h (filamentous fungi), read-out: MIC AFla
Experimental: 6. In vitro antifungal activity screening
Antifungal activity evaluation was performed using a microdilution broth method according to EUCAST instructions (The European Committee on Antimicrobial Susceptibility Testing) with slight modifications. Eight fungal strains (four yeast and four mould strains) were used for antifungal […]
and Trichophyton interdigitale CCM 8377 (ATCC 9533). Tested strains were purchased from the Czech Collection of Microorganisms (CCM, Brno, Czech Republic) or from the American Type Collection Cultures (ATCC, Manassas, VA, USA). Tested compounds were dissolved in DMSO and diluted in a twofold manner with RPMI 1640 medium, with glutamine and 2% glucose, buffered to pH 7.0 with MOPS (3-morpholinopropane-1-sulfonic acid). The final concentration of DMSO in the testing […]
Static incubation was performed in the dark and in humid atmosphere, at 35±2 °C, for 24 and 48 h (72 and 120 h for Trichophyton interdigitale respectively). Positive controls consisted of test microbe solely, while negative controls consisted of cultivation medium and DMSO. Visual inspection and metabolic activity indicator, Alamar Blue (ThermoFisher Scientific), were used for MIC endpoint evaluation. The internal quality standards, amphotericin B (Sigma-Aldrich) and voriconazole (Toronto research Chemicals, CA) were involved in assays (for MIC of standards see Table S5). All experiments were conducted in duplicates.
For the results to be valid, the difference in MIC for one compound determined from two parallel measurements must not be greater than one step on the dilution scale.

[2] = system: Mycobacterium aurum DSM 43999 (ATCC 23366); experiment: Microplate Alamar Blue Assay (MABA) microdilution, M. aurum; type: cell-based; conditions: Mycolicibacterium aurum
[3] = system: Klebsiella pneumoniae CCM 4415 (ATCC 10031); experiment: Antibacterial microdilution broth method, KP; conditions: read after 24 h of incubation
HepG2 cell line = experiment: HepG2 cytotoxicity, CellTiter 96 (MTS) assay; type: cell-based, human; conditions: Homo sapiens, read-out: HepG2 IC50
[4] = system: Aspergillus fumigatus ATCC 204305; experiment: Antifungal microdilution broth method, AF; type: cell-based; conditions: ATCC204305, 48 h, read-out: MIC AF
[5] = system: Lichtheimia corymbifera CCM 8077; experiment: Antifungal microdilution broth method, LC; type: cell-based; conditions: CCM8077, 48 h, read-out: MIC LC
[6] = system: Staphylococcus epidermidis CCM 4418 (ATCC 12228); experiment: Antibacterial microdilution broth method, SE; type: cell-based; conditions: 24 h, read-out: MIC SE
[7] = system: Candida tropicalis CCM 8264 (ATCC 750); experiment: Antifungal microdilution broth method, CT; type: cell-based; conditions: 24 h, read-out: MIC CT
[8] = system: M. smegmatis DSM 43465 (ATCC 607); experiment: Microplate Alamar Blue Assay (MABA) microdilution, M. smegmatis; type: cell-based, Mycobacterium smegmatis; conditions: Mycolicibacterium smegmatis
[9] = system: Candida parapsilosis CCM 8260 (ATCC 22019); experiment: Antifungal microdilution broth method, CP; type: cell-based; conditions: Lodderomyces parapsilosis, 24 h, read-out: MIC CP
[10] = system: Trichophyton interdigitale CCM 8377 (ATCC 9533); experiment: Antifungal microdilution broth method, TI; type: cell-based; conditions: 48 h, read-out: MIC TI
[11] = system: Mtb H37Ra ITM-M006710 (ATCC 9431); experiment: Microplate Alamar Blue Assay (MABA) microdilution, Mtb H37Ra; type: cell-based, Mycobacterium tuberculosis; conditions: Mycobacterium tuberculosis
[12] = system: Candida krusei CCM 8271 (ATCC 6258); experiment: Antifungal microdilution broth method, CK; type: cell-based; conditions: Pichia kudriavzevii, 24 h, read-out: MIC CK
[13] = system: Candida albicans CCM 8320 (ATCC 24433); experiment: Antifungal microdilution broth method, CA; type: cell-based; conditions: 24 h, read-out: MIC CA
[14] = pH 6, read-out: MIC M. aurum µg/mL
[15] = pH 6, read-out: MIC M. smegmatis µg/mL
[16] = pH 6.6, read-out: MIC M. smegmatis
[17] = pH 6.6, read-out: MIC Mtb H37Ra
[18] = pH 6, calculated from µg/mL, read-out: MIC Mtb H37Ra

`C[C@H](NC(=O)c1cnccn1)C(=O)O` [PC-L-Ala, (pyrazine-2-carbonyl)-L-alanine] gave an MIC [1] greater than 500 µM, an MIC [2, 14] of 62.5 µg/mL (≈ 320 µM) and an MIC ([2]; pH 6.6, read-out: MIC M. aurum) of no less than 250 µg/mL. The “MIC KP” value [3] was greater than 500 µM, the IC50 (HepG2 cell line; HepG2, 24 h incubation, CellTiter 96) was greater than 250 µM and the MIC [4] was greater than 500 µM. It also gave an MIC [5] greater than 500 µM, an MIC [6] greater than 500 µM and an MIC [7] greater than 500 µM. It also gave an MIC [8, 15] of 125 µg/mL (≈ 640 µM), an MIC [8, 16] of no less than 250 µg/mL and an MIC [9] greater than 500 µM. It also gave an MIC [10] greater than 500 µM, an MIC ([11]; pH 6) of no less than 250 µg/mL and an MIC ([11]; pH 6, read-out: MIC Mtb H37Ra) of no less than 250 µg/mL. For the same compound, the MIC [11, 17] was no less than 250 µg/mL, the MIC ([11]; pH 6, Table 4, read-out: Mtb pH 6 MIC) was no less than 1280 µM and the MIC [11, 18] was no less than 1280 µM. For the same compound, the MIC [12] was greater than 500 µM and the MIC [13] was greater than 500 µM.
With `COC(=O)[C@H](COCc1ccccc1)NC(=O)c1cnccn1` [PC-L-OBn-Ser-Me, methyl O-benzyl-N-(pyrazine-2-carbonyl)-L-serinate] the MIC [1] was greater than 250 µM, the MIC [2, 14] was 62.5 µg/mL (≈ 198 µM) and the MIC ([2]; pH 6.6, read-out: MIC M. aurum) was no less than 500 µg/mL. For the same compound, the IC50 (HepG2 cell line; HepG2, 24 h) was 742 µM, the MIC [4] was greater than 250 µM and the MIC [5] was greater than 250 µM. For the same compound, the MIC [6] was greater than 250 µM, the MIC [7] was 125 µM (≈ 39.4 µg/mL) and the MIC [8, 15] was no less than 500 µg/mL. It also gave an MIC [8, 16] of no less than 500 µg/mL, an MIC [9] greater than 250 µM and an MIC [10] greater than 250 µM. It also gave an MIC ([11]; pH 6) of 7.81 µg/mL, an MIC ([11]; pH 6, read-out: Mtb pH 6 MIC) of 25 µM and an MIC ([11]; pH 6, read-out: MIC Mtb H37Ra) of 7.81 µg/mL. It also gave an MIC [11, 17] of 250 µg/mL, an MIC [11, 18] of 24.8 µM and an MIC [12] greater than 250 µM. It also gave an MIC [13] greater than 250 µM.
Work on `CCOC(=O)[C@H](Cc1c[nH]c2ccccc12)NC(=O)c1cnccn1` [PC-L-Trp-Et, ethyl (pyrazine-2-carbonyl)-L-tryptophanate] yielded an MIC [1] greater than 500 µM, an MIC [2, 14] of 62.5 µg/mL (≈ 185 µM) and an MIC ([2]; pH 6.6, read-out: MIC M. aurum) of 125 µg/mL (≈ 369 µM). The “MIC KP” value [3] was greater than 500 µM, the IC50 (HepG2 cell line; HepG2, 24 h) was 147 µM and the MIC [4] was greater than 500 µM. It also gave an MIC [5] greater than 500 µM, an MIC [6] greater than 500 µM and an MIC [7] greater than 500 µM. It also gave an MIC [8, 15] of 250 µg/mL (≈ 739 µM), an MIC [8, 16] of 250 µg/mL (≈ 739 µM) and an MIC [9] greater than 500 µM. It also gave an MIC [10] greater than 500 µM, an MIC ([11]; pH 6) of 125 µg/mL and an MIC ([11]; pH 6, read-out: Mtb pH 6 MIC) of 125 µM. It also gave an MIC ([11]; pH 6, read-out: MIC Mtb H37Ra) of 125 µg/mL, an MIC [11, 17] of 125 µg/mL and an MIC [11, 18] of 369 µM. It also gave an MIC [12] greater than 500 µM and an MIC [13] greater than 500 µM.
`COC(=O)[C@H](COC(C)(C)C)NC(=O)c1cnccn1` [PC-L-OtBu-Ser-Me, methyl O-(tert-butyl)-N-(pyrazine-2-carbonyl)-L-serinate] showed an MIC [1] greater than 500 µM, an MIC [2, 14] of 62.5 µg/mL (≈ 222 µM) and an MIC ([2]; pH 6.6, read-out: MIC M. aurum) of no less than 500 µg/mL. The “MIC KP” value [3] was greater than 500 µM, the MIC [4] was greater than 500 µM and the MIC [5] was greater than 500 µM. For the same compound, the MIC [6] was greater than 500 µM, the MIC [7] was greater than 500 µM and the MIC [8, 15] was 250 µg/mL (≈ 889 µM). For the same compound, the MIC [8, 16] was no less than 500 µg/mL, the MIC [9] was greater than 500 µM and the MIC [10] was greater than 500 µM. It also gave an MIC ([11]; pH 6) of no less than 500 µg/mL, an MIC ([11]; pH 6, read-out: MIC Mtb H37Ra) of no less than 500 µg/mL and an MIC [11, 17] of no less than 500 µg/mL. The MIC [11, 18] was no less than 1780 µM, the MIC [12] was greater than 500 µM and the MIC [13] was greater than 500 µM.
For `COC(=O)CC[C@@H](NC(=O)c1cnccn1)C(=O)OC` [PC-D-Glu-diMe, dimethyl (pyrazine-2-carbonyl)-D-glutamate], the MIC [1] was greater than 500 µM, the MIC [2, 14] was no less than 500 µg/mL and the MIC ([2]; pH 6.6, read-out: MIC M. aurum) was no less than 500 µg/mL. For the same compound, the “MIC KP” value [3] was greater than 500 µM, the MIC [4] was greater than 500 µM and the MIC [5] was greater than 500 µM. The MIC [6] was greater than 500 µM, the MIC [7] was greater than 500 µM and the MIC [8, 15] was no less than 500 µg/mL. The MIC [8, 16] was no less than 500 µg/mL, the MIC [9] was greater than 500 µM and the MIC [10] was greater than 500 µM. For the same compound, the MIC ([11]; pH 6) was no less than 500 µg/mL, the MIC ([11]; pH 6, read-out: MIC Mtb H37Ra) was no less than 500 µg/mL and the MIC [11, 17] was no less than 500 µg/mL. For the same compound, the MIC [11, 18] was no less than 1780 µM, the MIC [12] was greater than 500 µM and the MIC [13] was greater than 500 µM.
